Laboratory results reported in PMC10112521, “High-throughput AR dimerization assay identifies androgen disrupting chemicals and metabolites” (Frontiers in Toxicology, 2023).
Where two headings read alike, the source gives them in different places.

How the values were obtained:
AR2 cells (HepG2-AR2) [1] = assay: Alamar Blue (resazurin) post hoc cell viability / cytotoxicity assay in AR2 cells; conditions: spid Viability, sheet antagonist_fits; for hill_tp (Hill model top): 0 where win_model is Constant
Description: (§1) For antagonist mode and cytotoxicity data, well-level normalized response (resp) was calculated as: resp=100 * RLU−bval/pval−bval where pval is the median RLU value of the MEC positive control wells (minimum four wells).

AR2 cells (HepG2-AR2) [2] = test system: AR2 cells (HepG2-AR2)
Description: as §1

AR = test system: AR; set-up: method as in Kleinstreuer et al., 2017; conditions: 2017, cited from earlier work; for Agonist reference: AR agonist reference class ref Kleinstreuer et al.; for Antagonist reference: AR antagonist reference class ref Kleinstreuer et al.
human AR [3] = target: T1, human AR (Homo sapiens, UniProt P10275); assay: AR2 assay, agonist mode: ligand-dependent AR homodimerization (NanoBiT luciferase complementation) in stable HepG2-AR2 cells; assay type: cell-based; conditions: sheet agonist_fits; for hill_tp: Hill model top (efficacy), 0 given where win_model is Constant; for max_med: maximum median response; for win_model: winning concentration-response model (Constant, Hill, Gain-Loss);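 for hill tp: Log2 fold change of luminescence over DMSO vehicle wells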;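 for max med: Log2 fold change of luminescence over DMSO vehicle wells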
T1 sequence (P10275 1-920) 1: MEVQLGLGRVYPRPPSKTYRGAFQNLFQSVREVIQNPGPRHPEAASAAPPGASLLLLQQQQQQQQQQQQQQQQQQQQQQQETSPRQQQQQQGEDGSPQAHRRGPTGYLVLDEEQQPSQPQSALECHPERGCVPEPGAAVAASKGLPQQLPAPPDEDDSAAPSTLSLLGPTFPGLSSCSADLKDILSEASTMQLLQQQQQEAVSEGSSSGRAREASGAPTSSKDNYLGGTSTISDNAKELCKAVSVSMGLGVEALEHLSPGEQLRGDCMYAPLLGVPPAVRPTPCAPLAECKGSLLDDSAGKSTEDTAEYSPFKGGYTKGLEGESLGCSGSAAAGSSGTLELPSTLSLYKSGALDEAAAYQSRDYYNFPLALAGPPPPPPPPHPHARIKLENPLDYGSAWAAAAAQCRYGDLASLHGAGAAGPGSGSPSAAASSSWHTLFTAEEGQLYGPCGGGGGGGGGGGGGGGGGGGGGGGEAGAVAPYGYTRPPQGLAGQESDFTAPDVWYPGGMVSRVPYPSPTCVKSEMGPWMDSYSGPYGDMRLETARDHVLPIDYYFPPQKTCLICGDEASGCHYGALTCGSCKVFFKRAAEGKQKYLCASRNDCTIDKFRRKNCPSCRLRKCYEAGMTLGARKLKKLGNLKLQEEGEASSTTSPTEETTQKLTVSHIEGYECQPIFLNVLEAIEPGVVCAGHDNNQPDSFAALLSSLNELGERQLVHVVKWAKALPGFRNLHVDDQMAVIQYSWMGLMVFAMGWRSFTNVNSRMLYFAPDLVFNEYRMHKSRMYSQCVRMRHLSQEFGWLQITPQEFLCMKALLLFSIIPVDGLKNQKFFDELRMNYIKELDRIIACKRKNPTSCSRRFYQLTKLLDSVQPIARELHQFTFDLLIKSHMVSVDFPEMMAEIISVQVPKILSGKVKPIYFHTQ
T1 sequence (P10275 1-920) 2: T1 sequence (P10275 1-920) 1

human AR [4] = target: T1, human AR; assay: cell-based; set-up: species or system AR2 cells (HepG2-AR2); NanoLuc complementation AR homodimerization, antagonist mode, loss of agonist-induced luminescence, AC50 by Hill fit; conditions: hill_ga, antagonist mode, 10 nM agonist stimulus, 18 h, no CYP expressed
human AR [5] = target: T1, human AR; assay: AR2 assay, antagonist mode: disruption of R1881 (10 nM)-induced AR homodimerization in HepG2-AR2 cells; assay type: cell-based
[6] = spid AR_antagonist, sheet antagonist_fits
[7] = spid AR_antagonist, sheet antagonist_fits, Hill fit parameter

## CCOC(=O)c1ccc(O)cc1 [Ethylparaben]
AR2 cells (HepG2-AR2) [1]
  max_med (maximum median response): 6.202
  hill_tp (Hill model top): 0
AR2 cells (HepG2-AR2) [2]
  hill_ga (Hill model log AC50): 0

## C=C1C[C@@H]2[C@H](CC[C@]3(C)C(=O)CC[C@@H]23)[C@@]2(C)C=CC(=O)C=C12 [Exemestane]
AR2 cells (HepG2-AR2) [2]
  hill_tp (Hill model top): 0
AR2 cells (HepG2-AR2) [2]; spid Viability, sheet antagonist_fits
  max_med (maximum median response): 7.414

## OC(c1ccc(Cl)cc1)(c1cncnc1)c1ccccc1Cl (stereo not drawn) [Fenarimol]
AR2 cells (HepG2-AR2) [1]
  max_med (maximum median response): 16.9049
  hill_tp (Hill model top): 0
AR
  Agonist reference: Inactive
  Antagonist reference: Weak
AR; Supplementary Table S1
  Antagonist reference: Weak
AR2 cells (HepG2-AR2) [2]
  hill_ga (Hill model log AC50): 0

## O=C1c2ccccc2C(=O)N1SC(Cl)(Cl)Cl [Folpet]
AR2 cells (HepG2-AR2) [1]
  max_med (maximum median response): 26.2456
  hill_tp (Hill model top): 26.8665
AR2 cells (HepG2-AR2) [2]
  hill_ga (Hill model log AC50): 1.483

## O=c1c(-c2ccc(O)cc2)coc2cc(O)cc(O)c12 [Genistein]
Human AR [3]
  hill_tp: 0
  max_med: 0.108
  win_model: Constant
AR2 cells (HepG2-AR2) [1]
  max_med (maximum median response): 23.3224
  hill_tp (Hill model top): 24.3043
Human AR [4]; spid=Bgal
  AC50: 9.34 µM
Human AR [4]; spid=No_RNA
  AC50: 9.32 µM
Human AR [5]
  hill_tp (Hill model top): 100.659
  max_med (maximum median response): 101.398
Human AR [5]; [6]
  win_model (winning concentration-response model): Hill
Human AR [5]; spid AR_antagonist, sheet antagonist_fits, 0 where win_model is Constant
  hill_gw (Hill model slope): 2.066

## CC(C)NC(=O)N1CC(=O)N(c2cc(Cl)cc(Cl)c2)C1=O [Iprodione]
AR2 cells (HepG2-AR2) [1]
  max_med (maximum median response): 9.628
  hill_tp (Hill model top): 0
AR; Supplementary Table S1
  Agonist reference: Inactive
AR2 cells (HepG2-AR2) [2]
  hill_ga (Hill model log AC50): 0

## CNc1cnn(-c2cccc(C(F)(F)F)c2)c(=O)c1Cl [Norflurazon]
AR2 cells (HepG2-AR2) [1]
  max_med (maximum median response): 4.6212
  hill_tp (Hill model top): 0
AR2 cells (HepG2-AR2) [2]
  hill_ga (Hill model log AC50): 0

## C#CCOS(=O)OC1CCCCC1Oc1ccc(C(C)(C)C)cc1 (stereo not drawn) [Propargite]
AR2 cells (HepG2-AR2) [1]
  max_med (maximum median response): 5.892
  hill_tp (Hill model top): 5.298
AR2 cells (HepG2-AR2) [2]
  hill_ga (Hill model log AC50): 0.5083

## CCNc1nc(Cl)nc(NCC)n1 [Simazine]
AR2 cells (HepG2-AR2) [1]
  max_med (maximum median response): 12.6117
  hill_tp (Hill model top): 7.295
AR
  Antagonist reference: Inactive
AR2 cells (HepG2-AR2) [2]
  hill_ga (Hill model log AC50): -0.7451

## CC(C)(C)C(=O)C(Oc1ccc(Cl)cc1)n1cncn1 (stereo not drawn) [Triadimefon]
AR2 cells (HepG2-AR2) [1]
  max_med (maximum median response): 19.918
  hill_tp (Hill model top): 58.3985
AR2 cells (HepG2-AR2) [2]
  hill_ga (Hill model log AC50): -3.878

## C=CC1(C)OC(=O)N(c2cc(Cl)cc(Cl)c2)C1=O (stereo not drawn) [Vinclozolin]
AR2 cells (HepG2-AR2) [1]
  max_med (maximum median response): 15.9864
  hill_tp (Hill model top): 12.9726
AR
  Antagonist reference: Weak
AR; Supplementary Table S1
  Antagonist reference: Weak
AR2 cells (HepG2-AR2) [2]
  hill_ga (Hill model log AC50): -3.255

## COP(=O)(OC)O/C(=C\Cl)c1cc(Cl)c(Cl)cc1Cl [Z-Tetrachlorvinphos]
Human AR [3]
  hill_tp: 0
  max_med: 0.08626
  win_model: Constant
AR2 cells (HepG2-AR2) [1]
  max_med (maximum median response): 16.5553
AR2 cells (HepG2-AR2) [1]; Hill fit parameter
  hill_tp (Hill model top of curve): 16.4592
Human AR [4]; spid=Bgal
  AC50: 28.8 µM
Human AR [4]; spid=No_RNA
  AC50: 28.9 µM
Human AR [5]; [6]
  max_med (maximum median response): 94.4561
Human AR [5]; spid AR_antagonist, sheet antagonist_fits, Constant = no concentration response
  win_model (winning curve-fit model): Hill
Human AR [5]; [7]
  hill_gw (Hill model slope/Hill coefficient): 1.437
  hill_tp (Hill model top of curve): 113.966

## Clc1ccc(C(c2ccccc2Cl)C(Cl)(Cl)Cl)cc1 (stereo not drawn) [o,p'-DDT]
AR
  Agonist reference: Inactive
  Antagonist reference: Weak
AR; Supplementary Table S1
  Antagonist reference: Weak
AR2 cells (HepG2-AR2) [2]
  hill_ga (Hill model log AC50): 1.826
AR2 cells (HepG2-AR2) [2]; human
  hill_tp (Hill model top of curve): 110.666
  max_med (maximum median response): 83.8839

## Clc1ccc(C(c2ccc(Cl)cc2)C(Cl)Cl)cc1 [p,p'-DDD]
AR2 cells (HepG2-AR2) [2]
  hill_ga (Hill model log AC50): 1.74
AR2 cells (HepG2-AR2) [2]; human, 18 h
  hill_tp (Hill model top of curve): 93.5622
  max_med (maximum median response): 93.2611

## ClC(Cl)=C(c1ccc(Cl)cc1)c1ccc(Cl)cc1 [p,p'-DDE]
AR; Supplementary Table S1
  Antagonist reference: Weak
AR2 cells (HepG2-AR2) [2]
  hill_ga (Hill model log AC50): 1.812
